Source: ChEMBL document CHEMBL1136638, “N-Benzoyl amino acids as LFA-1/ICAM inhibitors 1: amino acid structure-activity relationship” (Bioorg Med Chem Lett, 2003)

These molecules were tested against Intercellular adhesion molecule (ICAM-1), Integrin alpha-L/beta-2 (Homo sapiens, UniProt P05107+P05362+P20701) (assay: Concentration required to inhibit binding of ICAM-1 to LFA-1 (Leukocyte function-associated antigen-1), evaluated ELISA).
Format: protein-complex assay

Sequence of Intercellular adhesion molecule (ICAM-1), Integrin alpha-L/beta-2 (P20701 whole entry): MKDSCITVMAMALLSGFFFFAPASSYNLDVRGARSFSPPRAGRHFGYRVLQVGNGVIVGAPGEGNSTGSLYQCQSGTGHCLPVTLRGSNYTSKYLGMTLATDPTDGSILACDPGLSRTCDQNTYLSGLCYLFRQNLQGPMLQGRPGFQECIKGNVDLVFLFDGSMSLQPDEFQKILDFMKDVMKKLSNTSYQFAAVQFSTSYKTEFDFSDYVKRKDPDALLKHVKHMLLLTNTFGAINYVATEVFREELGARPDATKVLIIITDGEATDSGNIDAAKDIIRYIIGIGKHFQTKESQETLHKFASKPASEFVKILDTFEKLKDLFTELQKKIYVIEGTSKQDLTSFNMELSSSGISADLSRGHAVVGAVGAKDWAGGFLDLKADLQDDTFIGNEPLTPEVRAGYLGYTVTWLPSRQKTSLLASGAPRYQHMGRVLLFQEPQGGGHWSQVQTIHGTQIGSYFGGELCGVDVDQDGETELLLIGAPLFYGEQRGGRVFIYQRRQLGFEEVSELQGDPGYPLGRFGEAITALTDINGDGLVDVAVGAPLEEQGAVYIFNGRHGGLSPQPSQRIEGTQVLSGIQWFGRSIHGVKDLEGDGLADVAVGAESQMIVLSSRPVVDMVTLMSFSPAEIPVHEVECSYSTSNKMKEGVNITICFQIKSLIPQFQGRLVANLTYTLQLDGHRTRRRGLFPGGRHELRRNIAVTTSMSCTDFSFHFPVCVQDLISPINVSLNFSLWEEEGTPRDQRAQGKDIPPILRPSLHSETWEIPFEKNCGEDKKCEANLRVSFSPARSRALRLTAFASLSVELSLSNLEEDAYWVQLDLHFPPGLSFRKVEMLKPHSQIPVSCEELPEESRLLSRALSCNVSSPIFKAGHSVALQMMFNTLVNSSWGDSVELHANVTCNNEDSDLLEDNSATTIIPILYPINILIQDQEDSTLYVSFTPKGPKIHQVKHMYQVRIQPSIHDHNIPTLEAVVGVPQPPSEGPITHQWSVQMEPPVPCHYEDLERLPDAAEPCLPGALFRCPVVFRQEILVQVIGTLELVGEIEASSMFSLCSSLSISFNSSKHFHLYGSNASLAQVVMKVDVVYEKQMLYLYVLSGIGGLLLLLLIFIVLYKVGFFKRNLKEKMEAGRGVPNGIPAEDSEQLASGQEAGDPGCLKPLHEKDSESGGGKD
Sequence of Intercellular adhesion molecule (ICAM-1), Integrin alpha-L/beta-2 (P05362 whole entry): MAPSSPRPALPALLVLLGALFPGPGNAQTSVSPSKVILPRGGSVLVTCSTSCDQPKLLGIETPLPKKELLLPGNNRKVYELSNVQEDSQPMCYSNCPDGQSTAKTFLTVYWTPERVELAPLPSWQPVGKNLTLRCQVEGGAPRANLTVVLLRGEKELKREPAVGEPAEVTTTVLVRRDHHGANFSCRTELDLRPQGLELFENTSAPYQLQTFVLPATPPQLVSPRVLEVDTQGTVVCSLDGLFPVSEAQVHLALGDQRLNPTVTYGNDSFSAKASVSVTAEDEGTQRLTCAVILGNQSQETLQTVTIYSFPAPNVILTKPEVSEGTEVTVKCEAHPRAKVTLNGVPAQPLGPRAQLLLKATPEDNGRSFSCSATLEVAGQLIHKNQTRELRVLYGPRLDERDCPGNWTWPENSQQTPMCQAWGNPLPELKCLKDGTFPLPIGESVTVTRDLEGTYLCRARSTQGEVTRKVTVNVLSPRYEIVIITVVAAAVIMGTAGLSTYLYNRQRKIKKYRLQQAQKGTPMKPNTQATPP
Sequence of Intercellular adhesion molecule (ICAM-1), Integrin alpha-L/beta-2 (P05107 whole entry): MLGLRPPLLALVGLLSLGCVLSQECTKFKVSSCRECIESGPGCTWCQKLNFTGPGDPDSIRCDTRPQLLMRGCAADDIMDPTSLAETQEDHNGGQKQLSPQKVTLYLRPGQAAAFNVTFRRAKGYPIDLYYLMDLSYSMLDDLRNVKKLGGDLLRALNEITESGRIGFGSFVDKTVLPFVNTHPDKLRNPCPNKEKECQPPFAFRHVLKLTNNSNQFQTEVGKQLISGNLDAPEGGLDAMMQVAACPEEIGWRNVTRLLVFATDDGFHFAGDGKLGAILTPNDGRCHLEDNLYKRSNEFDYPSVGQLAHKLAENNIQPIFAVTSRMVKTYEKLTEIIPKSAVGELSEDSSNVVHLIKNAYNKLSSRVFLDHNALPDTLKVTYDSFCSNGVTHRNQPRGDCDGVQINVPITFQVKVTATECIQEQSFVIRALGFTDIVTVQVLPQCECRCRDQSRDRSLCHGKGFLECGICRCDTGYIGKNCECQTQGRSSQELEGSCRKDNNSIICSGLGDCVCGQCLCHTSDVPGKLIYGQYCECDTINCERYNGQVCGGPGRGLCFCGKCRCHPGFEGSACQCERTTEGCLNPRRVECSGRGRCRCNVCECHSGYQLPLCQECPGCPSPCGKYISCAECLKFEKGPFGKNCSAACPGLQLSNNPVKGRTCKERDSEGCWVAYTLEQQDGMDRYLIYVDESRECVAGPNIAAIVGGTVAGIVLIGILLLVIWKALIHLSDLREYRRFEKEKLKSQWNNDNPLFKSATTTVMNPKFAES

Structure (SMILES) | IC50 [µM]
O=C(N[C@@H](Cc1c[nH]c2cc(F)ccc12)C(=O)O)c1ccccc1Br | 7.64
O=C(O)[C@@H]1CCCN1C(=O)c1ccccc1Br | > 1000
O=C(N[C@H](Cc1cccc2ccccc12)C(=O)O)c1ccccc1Br | > 200
O=C(N[C@@H](Cc1c[nH]c2ccc(F)cc12)C(=O)O)c1ccccc1Br | 10.8
O=C(N[C@@H](Cc1c[nH]c2ccccc12)C(=O)NO)c1ccccc1Br | 140
O=C(N[C@@H](Cc1c[nH]c2ccc(Br)cc12)C(=O)O)c1ccccc1Br | 28.4
O=C(N[C@H](Cc1c[nH]c2ccccc12)C(=O)O)c1ccccc1Br | 76.6
O=C(N[C@@H](Cc1c[nH]c2ncccc12)C(=O)O)c1ccccc1Br | 63.8
O=C(N[C@@H](Cc1c[nH]c2ccccc12)C(=O)O)c1ccccc1Br | 1.7
O=C(N[C@@H](Cc1cnc[nH]1)C(=O)O)c1ccccc1Br | 0.75
NC(=O)[C@H](Cc1c[nH]c2ccccc12)NC(=O)c1ccccc1Br | > 1000
COC(=O)[C@H](Cc1c[nH]c2ccccc12)NC(=O)c1ccccc1Br | > 1000
COc1ccc2[nH]cc(C[C@H](NC(=O)c3ccccc3Br)C(=O)O)c2c1 | 2.77
O=C(N[C@@H](Cc1ccc(-c2ccccc2)cc1)C(=O)O)c1ccccc1Br | 50.5
O=C(N[C@@H](Cc1cccc2ccccc12)C(=O)O)c1ccccc1Br | 15.9
O=C(NCCc1c[nH]c2ccccc12)c1ccccc1Br | > 1000
O=C(N[C@@H](Cc1ccc2ccccc2c1)C(=O)O)c1ccccc1Br | 24.4
O=C(N[C@H](Cc1ccc2ccccc2c1)C(=O)O)c1ccccc1Br | 243

Next, values leading:

IC50 [µM] | Structure (SMILES)
5.09 | O=C(N[C@@H](CCc1ccccc1)C(=O)O)c1ccccc1Br
1.21 | NCCCC[C@H](NC(=O)c1ccccc1Br)C(=O)O
54.3 | CC(C)C[C@H](NC(=O)c1ccccc1Br)C(=O)O
4.89 | O=C(N[C@@H](Cc1ccccc1)C(=O)O)c1ccccc1Br
11.3 | CC(C)[C@H](NC(=O)c1ccccc1Br)C(=O)O
6.64 | C[C@H](NC(=O)c1ccccc1Br)C(=O)O
280 | O=C(N[C@H](Cc1ccccc1)C(=O)O)c1ccccc1Br
4.26 | O=C(N[C@@H](CS)C(=O)O)c1ccccc1Br
2.71 | N=C(N)NCCC[C@H](NC(=O)c1ccccc1Br)C(=O)O
314 | O=C(O)CNC(=O)c1ccccc1Br
106 | CC[C@H](C)[C@H](NC(=O)c1ccccc1Br)C(=O)O
24.2 | O=C(N[C@@H](Cc1c[nH]c2ccc(O)cc12)C(=O)O)c1ccccc1Br
30.1 | O=C(O)CC[C@H](NC(=O)c1ccccc1Br)C(=O)O
1.08 | NC(=O)C[C@H](NC(=O)c1ccccc1Br)C(=O)O
7.46 | CSCC[C@H](NC(=O)c1ccccc1Br)C(=O)O
1.09 | O=C(N[C@@H](Cc1ccc(O)cc1)C(=O)O)c1ccccc1Br
> 200 | O=C(O)C[C@H](NC(=O)c1ccccc1Br)C(=O)O
3.84 | C[C@@H](O)[C@H](NC(=O)c1ccccc1Br)C(=O)O
36.8 | N#Cc1ccc(C[C@H](NC(=O)c2ccccc2Br)C(=O)O)cc1
72.6 | O=C(N[C@H](CO)C(=O)O)c1ccccc1Br
1.77 | NC(=O)CC[C@H](NC(=O)c1ccccc1Br)C(=O)O
5.5 | O=C(N[C@@H](Cc1cccs1)C(=O)O)c1ccccc1Br
6.15 | O=C(N[C@@H](CO)C(=O)O)c1ccccc1Br
57.5 | C[C@@H](NC(=O)c1ccccc1Br)C(=O)O
